Measured values reported in paper PMC11219871, “Epigenetic-based differentiation therapy for Acute Myeloid Leukemia” (Nature Communications, 2024).
Where “and” joins values, the source holds several entries; their conditions need not be identical. Identical values can stand only once.

Experiments:
MOLM-13 = test: Differentiation-apoptosis assay, CD11b / annexin-V / Sytox Green / myeloid markers flow cytometry; format: cell-based, human; parameters: Cell viability (%): concentration or dose not given beside the values; conditions: MOLM-13, 48 h treatment, replicates 1-3 (Suppl. Fig. 5A)
Summary of the method: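 Differentiation and apoptosis were read by flow cytometry after 15 min dark staining at room temperature with APC-CD11b plus FITC annexin-V, 1 × 10^6 cells/mL in binding buffer. Myeloid markers CD13, HLA-DR and CD14 were stained in separate runs for 30 min, followed by lysis and washing.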

ML-2 = test: as above; format: cell-based, human; parameters: Cell viability: concentration or dose not given beside the values; conditions: ML-2, 48 h; replicates (Fig 4A)
Experimental: Next, the cells were washed twice with phosphate-buffered saline (PBS) and resuspended in 1X Binding Buffer at a concentration of 1 × 10^6 cells/mL. An 8-µL aliquot of APC-CD11b (BD Pharmingen, Franklin Lakes, NJ, USA) and 1 µL of FITC annexin-V (AV) (BD Pharmingen, Franklin Lakes, NJ, USA) antibodies were added and incubated for 15 min at room temperature in the dark. Finally, after the addition of 400 µL of 1X Binding Buffer to each tube, samples were collected on a BD FACSCanto flow cytometer (Becton Dickinson, San Jose, CA, USA) and analyzed using FlowJo software.
For the rest of experiments, the mix of antibodies (2 µL of BV786-CD13, Cat No, 744748 BD; 1 µL of diluted 1:10 antibody of PB-HLADR, Cat No 307633, Biolegend; 5 µL of APCH7-CD14, Cat No 641394, BD) was added to 10 µL of Brilliant Stain Buffer Plus (Becton Dickinson, San Jose, CA, USA). Then, 1 million cells (volume of 250 µL) were added and incubated for 30 min at room temperature in darkness. After 10 min incubation at room temperature with 2 mL of FACSLysing 1X, cells were centrifuged at 540 g for 5 min and washed twice with FACSBuffer. Finally, after centrifugation at 540 g for 5 min cells were resuspended in FACSBuffer.

SMILES	CD11b (%) (MOLM-13)	Cell viability (%) (MOLM-13)	CD11b (ML-2)	Cell viability (ML-2)
Cc1[nH]c2ccccc2c1CCNCc1ccc(/C=C/C(=O)NO)cc1 [Panobinostat, reference compound]	39.6% and 32.7% and 32.0%	45.5% and 59.6% and 57.8%	36.1% and 27.0% and 28.8%	69.0% and 63.1% and 66.5%
O=C(CCCCCCC(=O)Nc1ccccc1)NO [Vorinostat, reference compound]	37.1% and 43.8% and 41.2%	69.1% and 74.5% and 73.9%	25.0% and 20.7% and 16.1%	86.1% and 82.9% and 82.7%
